Results: patent US9751869B2, “LXR modulators” (BRISTOL-MYERS SQUIBB COMPANY, priority 2013, dated 2017)

Biological target: T1, LXRβ (Homo sapiens, UniProt P55055)
T1 construct: Co-transfection expression plasmids, comprising full-length LXRα (pCMX-h LXRα or LXRβ (pCMX-hLXRβ)); expressed in transfected cells; host or cells: CV-1 African green monkey kidney cells, transient transfection with pCMX-hLXRβ
T1 sequence (P55055 1-460): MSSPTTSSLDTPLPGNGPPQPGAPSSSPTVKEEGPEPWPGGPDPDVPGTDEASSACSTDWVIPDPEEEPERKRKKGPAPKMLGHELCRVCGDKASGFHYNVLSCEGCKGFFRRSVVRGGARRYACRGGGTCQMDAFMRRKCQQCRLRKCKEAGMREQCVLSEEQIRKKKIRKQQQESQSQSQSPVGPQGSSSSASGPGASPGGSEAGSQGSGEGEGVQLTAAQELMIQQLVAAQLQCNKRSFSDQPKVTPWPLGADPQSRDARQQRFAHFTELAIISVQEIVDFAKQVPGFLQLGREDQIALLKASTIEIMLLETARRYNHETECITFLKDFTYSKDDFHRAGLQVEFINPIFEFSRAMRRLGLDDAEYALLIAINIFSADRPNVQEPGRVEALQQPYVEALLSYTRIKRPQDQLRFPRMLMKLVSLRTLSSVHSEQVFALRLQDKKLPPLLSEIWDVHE
T1 sequence (P19793 1-462 partner): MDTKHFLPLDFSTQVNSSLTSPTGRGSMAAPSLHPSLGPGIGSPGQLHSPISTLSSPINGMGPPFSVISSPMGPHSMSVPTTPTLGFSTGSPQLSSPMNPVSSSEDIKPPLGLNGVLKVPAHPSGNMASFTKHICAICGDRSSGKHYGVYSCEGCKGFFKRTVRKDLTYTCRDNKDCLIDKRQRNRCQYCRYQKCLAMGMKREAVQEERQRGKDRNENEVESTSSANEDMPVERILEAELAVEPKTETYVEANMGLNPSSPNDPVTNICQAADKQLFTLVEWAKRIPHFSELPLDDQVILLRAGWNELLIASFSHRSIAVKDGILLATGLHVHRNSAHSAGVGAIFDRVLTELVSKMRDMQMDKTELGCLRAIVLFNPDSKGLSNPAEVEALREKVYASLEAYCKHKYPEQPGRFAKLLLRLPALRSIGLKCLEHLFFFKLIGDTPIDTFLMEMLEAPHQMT
Experiment: LXR/LXRE co-transfection assay (luciferase reporter) in CV-1 cells, LXRβ
Assay type: cell-based
Settings: for EC50: CV-1 cells transfected with pCMX-hLXRβ and LXREx1-Tk-Luciferase, 20 hours incubation, read-out: LXRbeta agonism EC50; for Emax: CV-1 cells, relative to maximum response of high control N-(3-((4-fluorophenyl)-(naphthalene-2-sulfonyl)amino)propyl)-2,2-dimethylpropionamide, read-out: LXRbeta % EFFICACY
Outline: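 CV-1 cells transiently co-transfected with full-length human LXRβ, LXRE-Tk-luciferase reporter and β-galactosidase control, then exposed to compound (≤0.5% DMSO) for 20 h at 37 °C before luminescence read. EC50 from 10-point, half-log dose curves; efficacy relative to the sulfonamide high control, means of 2–3 experiments.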

Work on `Cc1nc(-c2ccc3c(c2)OC(F)(F)O3)c(-c2cc(-c3cc(F)c(CO)c(S(C)(=O)=O)c3)ccc2-n2cc(Cl)c(C(F)(F)F)n2)o1` [Example 420, (4′-(4-chloro-3-(trifluoromethyl)-1H-pyrazol-1-yl)-3′-(4-(2,2-difluorobenzo[d][1,3]dioxol-5-yl)-2-methyloxazol-5-yl)-3-fluoro-5-(methylsulfonyl)-[1,1′-biphenyl]-4-yl) methanol] yielded an EC50 of 7 nM and an Emax of 74%.
With `Cc1nc(-c2cc(F)c(OC(F)F)c(F)c2)c(-c2cc(-c3cccc(S(C)(=O)=O)c3)ccc2-n2cc(Cl)c(C(F)(F)F)n2)o1` [Example 421] the EC50 was 21 nM and the Emax was 76%.
`Cc1nc(-c2cc(F)c(OC(F)F)c(F)c2)c(-c2cc(-c3cc(F)c(CO)c(S(C)(=O)=O)c3)ccc2-n2cc(Cl)c(C(F)(F)F)n2)o1` [Example 422, (4′-(4-chloro-3-(trifluoromethyl)-1H-pyrazol-1-yl)-3′-(4-(4-(difluoromethoxy)-3,5-difluorophenyl)-2-methyloxazol-5-yl)-3-fluoro-5-(methylsulfonyl)-[1,1′-biphenyl]-4-yl)methanol] showed an EC50 of 4 nM and an Emax of 98%.
Work on `Cc1nc(-c2ccc(Cl)cc2Cl)c(-c2cc(-c3cccc(S(C)(=O)=O)c3)ccc2-n2cc(Cl)c(C(F)(F)F)n2)o1` [Example 423, 5-(4-(4-chloro-3-(trifluoromethyl)-1H-pyrazol-1-yl)-3′-(methylsulfonyl)-[1,1′-biphenyl]-3-yl)-4-(2,4-dichlorophenyl)-2-methyloxazole] yielded an EC50 of 60 nM and an Emax of 78%.
In the case of `Cc1nc(-c2ccc(Cl)cc2Cl)c(-c2cc(-c3cc(F)c(CO)c(S(C)(=O)=O)c3)ccc2-n2cc(Cl)c(C(F)(F)F)n2)o1` [Example 424, (4′-(4-chloro-3-(trifluoromethyl)-1H-pyrazol-1-yl)-3′-(4-(2,4-dichlorophenyl)-2-methyloxazol-5-yl)-3-fluoro-5-(methylsulfonyl)-[1,1′-biphenyl]-4-yl)methanol], the EC50 is reported as 13 nM and the Emax is reported as 60%.
In the case of `Cc1nc(-c2ccc(OC(F)F)nc2)c(-c2cc(-c3cccc(S(C)(=O)=O)c3)ccc2-n2cc(Cl)c(C(F)(F)F)n2)o1` [Example 425], the EC50 is reported as 24 nM and the Emax is reported as 99%.
`Cc1nc(-c2ccc(OC(F)F)nc2)c(-c2cc(-c3cc(F)c(CO)c(S(C)(=O)=O)c3)ccc2-n2cc(Cl)c(C(F)(F)F)n2)o1` [Example 426, (4′-(4-chloro-3-(trifluoromethyl)-1H-pyrazol-1-yl)-3′-(4-(6-(difluoromethoxy)pyridin-3-yl)-2-methyloxazol-5-yl)-3-fluoro-5-(methylsulfonyl)-[1,1′-biphenyl]-4-yl) methanol] showed an EC50 of 8 nM and an Emax of 72%.
With `COc1ncc(-c2nc(C)oc2-c2cc(-c3cccc(S(C)(=O)=O)c3)ccc2-n2cc(Cl)c(C(F)(F)F)n2)cn1` [Example 427, 5-(4-(4-chloro-3-(trifluoromethyl)-1H-pyrazol-1-yl)-3′-(methylsulfonyl)-[1,1′-biphenyl]-3-yl)-4-(2-methoxypyrimidin-5-yl)-2-methyloxazole] the EC50 was 94 nM and the Emax was 58%.
`COc1ncc(-c2nc(C)oc2-c2cc(-c3cc(F)c(CO)c(S(C)(=O)=O)c3)ccc2-n2cc(Cl)c(C(F)(F)F)n2)cn1` [Example 428, (4′-(4-chloro-3-(trifluoromethyl)-1H-pyrazol-1-yl)-3-fluoro-3′-(4-(2-methoxypyrimidin-5-yl)-2-methyloxazol-5-yl)-5-(methylsulfonyl)-[1,1′-biphenyl]-4-yl)methanol] gave an EC50 of 93 nM and an Emax of 83%.
For `Cc1nc(-c2ccc(OC(F)(F)F)cc2)c(-c2cc(-c3cccc(C(C)(C)C#N)c3)ccc2-n2cc(Cl)c(C(F)(F)F)n2)o1` [Example 429, 2-(4′-(4-chloro-3-(trifluoromethyl)-1H-pyrazol-1-yl)-3′-(2-methyl-4-(4-(trifluoromethoxy)phenyl)oxazol-5-yl)-[1,1′-biphenyl]-3-yl)-2-methylpropanenitrile], the EC50 was 348 nM and the Emax was 60%.
For `Cc1nc(-c2ccc(OC(F)(F)F)cc2)c(-c2cc(-c3cccc(C(C)(C)C(N)=O)c3)ccc2-n2cc(Cl)c(C(F)(F)F)n2)o1` [Example 430, 2-(4′-(4-chloro-3-(trifluoromethyl)-1H-pyrazol-1-yl)-3′-(2-methyl-4-(4-(trifluoromethoxy)phenyl)oxazol-5-yl)-[1,1′-biphenyl]-3-yl)-2-methylpropanamide], the EC50 was 41 nM and the Emax was 80%.
Compound `Cc1nc(-c2ccc(OC(F)F)cc2Cl)c(-c2cc(-c3cccc(S(C)(=O)=O)c3)ccc2-n2cc(Cl)c(C(F)(F)F)n2)o1` [Example 431] has an EC50 of 37 nM and an Emax of 69%.
Work on `Cc1nc(-c2ccc(OC(F)F)cc2Cl)c(-c2cc(-c3cc(F)c(CO)c(S(C)(=O)=O)c3)ccc2-n2cc(Cl)c(C(F)(F)F)n2)o1` [Example 432, (4′-(4-chloro-3-(trifluoromethyl)-1H-pyrazol-1-yl)-3′-(4-(2-chloro-4-(difluoromethoxy)phenyl)-2-methyloxazol-5-yl)-3-fluoro-5-(methylsulfonyl)-[1,1′-biphenyl]-4-yl)methanol] yielded an EC50 of 19 nM and an Emax of 79%.
`Cc1nc(-c2ccc(OC(F)F)c(F)c2)c(-c2cc(-c3cccc(S(C)(=O)=O)c3)ccc2-n2cc(Cl)c(C(F)(F)F)n2)o1` [Example 433] showed an EC50 of 50 nM and an Emax of 83%.
Compound `Cc1nc(-c2ccc(OC(F)F)c(F)c2)c(-c2cc(-c3cc(F)c(CO)c(S(C)(=O)=O)c3)ccc2-n2cc(Cl)c(C(F)(F)F)n2)o1` [Example 434, (4′-(4-chloro-3-(trifluoromethyl)-1H-pyrazol-1-yl)-3′-(4-(4-(difluoromethoxy)-3-fluorophenyl)-2-methyloxazol-5-yl)-3-fluoro-5-(methylsulfonyl)-[1,1′-biphenyl]-4-yl)methanol] has an EC50 of 13 nM and an Emax of 78%.
In the case of `Cc1nc(-c2ccc(OC(F)F)cc2)c(-c2cc(-c3cccc(S(C)(=O)=O)c3)ccc2-n2ccc(C(F)(F)F)n2)o1` [Example 435, 4-(4-(difluoromethoxy)phenyl)-2-methyl-5-(3′-(methylsulfonyl)-4-(3-(trifluoromethyl)-1H-pyrazol-1-yl)-[1,1′-biphenyl]-3-yl)oxazole], the EC50 is reported as 30 nM and the Emax is reported as 53%.
`Cc1nc(-c2ccc(OC(F)F)cc2)c(-c2cc(-c3cc(F)c(CO)c(S(C)(=O)=O)c3)ccc2-n2ccc(C(F)(F)F)n2)o1` [Example 436, (3′-(4-(4-(difluoromethoxy)phenyl)-2-methyloxazol-5-yl)-3-fluoro-5-(methylsulfonyl)-4′-(3-(trifluoromethyl)-1H-pyrazol-1-yl)-[1,1′-biphenyl]-4-yl)methanol] showed an EC50 of 6 nM and an Emax of 61%.
For `Cc1nc(-c2ccc(C(F)(F)F)cc2)c(-c2cc(-c3cccc(S(C)(=O)=O)c3)ccc2-n2cc(Cl)c(C(F)(F)F)n2)o1` [Example 437, 5-(4-(4-chloro-3-(trifluoromethyl)-1H-pyrazol-1-yl)-3′-(methylsulfonyl)-[1,1′-biphenyl]-3-yl)-2-methyl-4-(4-(trifluoromethyl)phenyl)oxazole], the EC50 was 321 nM and the Emax was 49%.
With `Cc1nc(-c2ccc(C(F)(F)F)cc2)c(-c2cc(-c3cc(F)c(CO)c(S(C)(=O)=O)c3)ccc2-n2cc(Cl)c(C(F)(F)F)n2)o1` [Example 438, (4′-(4-chloro-3-(trifluoromethyl)-1H-pyrazol-1-yl)-3-fluoro-3′-(2-methyl-4-(4-(trifluoromethyl)phenyl)oxazol-5-yl)-5-(methylsulfonyl)-[1,1′-biphenyl]-4-yl)methanol] the EC50 was 128 nM and the Emax was 70%.
Compound `Cc1nc(-c2ccc(OC(F)(F)F)cc2)c(-c2cc(-c3cc(F)c(CO)c(S(C)(=O)=O)c3)ccc2-n2cc(C)c(C(F)(F)F)n2)o1` [Example 439, (3-fluoro-4′-(4-methyl-3-(trifluoromethyl)-1H-pyrazol-1-yl)-3′-(2-methyl-4-(4-(trifluoromethoxy)phenyl)oxazol-5-yl)-5-(methylsulfonyl)-[1,1′-biphenyl]-4-yl)methanol] has an EC50 of 38 nM and an Emax of 64%.
For `Cc1nc(-c2ccc(OC(F)(F)F)cc2)c(-c2cc(-c3cccc(S(C)(=O)=O)c3)ccc2-n2cc(C)c(C(F)(F)F)n2)o1` [Example 440], the EC50 was 51 nM and the Emax was 62%.
